What was measured:
COX-1 [1] = molecular target: T1, COX-1 (Homo sapiens, UniProt P23219); test: Assay of COX-1 activity from U937 cell microsomes; format: biochemical; parameters: endogenous in cells; host or cells: U937 cells, 100,000 x g microsomal pellet; conditions: PGE2, read-out: COX-1 (IC50 μM) U-937
Method: Assay of COX-1 Activity from U937 cell microsomes
U937 cells are pelleted by centrifugation at 500×g for 5 min and washed once with phosphate-buffered saline and repelleted. Cells are resuspended in homogenization buffer consisting of 0.1M Tris-HCl, pH 7.4, 10 mM EDTA, 2 μg/ml leupeptin, 2 μg/ml soybean trypsin inhibitor, 2 μg/ml aprotinin and 1 mM phenyl methyl sulfonyl fluoride. The cell suspension is sonicated 4 times for 10 sec and is centrifuged at 10,000×g for 10 min at 4° C. The supernatant is centrifuged at 100,000×g for 1 hr at 4° C. The 100,000×g microsomal pellet is resuspended in 0.1M Tris-HCl, pH 7.4, 10 mM EDTA to approximately 7 mg protein/ml and stored at −80° C.
Microsomal preparations are thawed immediately prior to use, subjected to a brief sonication, and then diluted to a protein concentration of 125 μg/ml in 0.1 M Tris-HCl buffer, pH 7.4 containing 10 mM EDTA, 0.5 mM phenol, 1 mM reduced glutathione and 1 μM hematin. Assays are performed in duplicate in a final volume of 250 μl. Initially, 5 μl of DMSO vehicle or drug in DMSO are added to 20 μl of 0.1M Tris-HCl buffer, pH 7.4 containing 10 mM EDTA in wells of a 96-deepwell polypropylene titre plate. 200 μl of the microsomal preparation are then added and pre-incubated for 15 min at room temperature before addition of 25 μl of […] arachidonic acid in 0.1M Tris-HCl and 10 mM EDTA, pH 7.4. Samples are incubated for 40 min at room temperature and the reaction is stopped by the addition of 25 μl of 1N HCl. Samples are neutralized with 25 μl of 1N NaOH prior to quantitation of PGE2 content by radioimmunoassay (Dupont-NEN or Amersham assay kits). Cyclooxygenase activity is defined as the difference between PGE2 levels in samples incubated in the presence of arachidonic acid and ethanol vehicle.
Compounds of the present invention are inhibitors of cyclooxygenase-2 and are thereby useful in the treatment of cyclooxygenase-2 mediated diseases as enumerated above. The activities of the compounds against cyclooxygenase may be seen in the representative results shown below. In the assay, inhibition is determined by measuring the amount of prostaglandin E2 (PGE2) synthesized in the presence of arachidonic acid, cyclooxygenase-1 or cyclooxygenase-2 and a putative inhibitor. The IC50 values represent the concentration of putative inhibitor required to return PGE2 synthesis to 50% of that obtained as compared to the uninhibited control.

COX-1 [2] = molecular target: T1, COX-1; test: Human whole blood assay, COX-1 (clotting-induced TxB2 production); format: cell-based; parameters: endogenous in cells; host or cells: platelets in fresh human whole blood without anticoagulant; conditions: clotting-induced TxB2, 1 hour at 37° C., read-out: COX-1 (IC50 μM) HWB
Method: Human whole blood provides a protein and cell-rich milieu appropriate for the study of biochemical efficacy of anti-inflammatory compounds such as selective COX-2 inhibitors. […] This is consistent with the observation that COX-2 inhibitors have no effect on PGE2 production in normal blood. These inhibitors are active only after incubation of human whole blood with LPS, which induces COX-2. This assay can be used to evaluate the inhibitory effect of selective COX-2 inhibitors on PGE2 production. As well, platelets in whole blood contain a large amount of the COX-1 enzyme. Immediately following blood clotting, platelets are activated through a thrombin-mediated mechanism. This reaction results in the production of thromboxane B2 (TxB2) via activation of COX-1. Thus, the effect of test compounds on TxB2 levels following blood clotting can be examined and used as an index for COX-1 activity. Therefore, the degree of selectivity by the test compound can be determined by measuring the levels of PGE2 after LPS induction (COX-2) and TxB2 following blood clotting (COX-1) in the same assay.
B. COX-1 (Clotting-induced TxB2 production)
Fresh blood is collected into vacutainers containing no anticoagulants. Aliquots of 500 μL are immediately transferred to siliconized microcentrifuge tubes preloaded with 2 μL of either DMSO or a test compound at final concentrations varying from 10 nM to 30 μM. The tubes are vortexed and incubated at 37° C. for 1 hour to allow blood to clot. At the end of incubation, serum is obtained by centrifugation (12,000×g for 5 min.). A 100 μL aliquot of serum is mixed with 400 μL of methanol for protein precipitation. The supernatant is obtained and is assayed for TxB2 using a enzyme immunoassay kit (Cayman, #519031) according to the manufacturer's instruction.

T1 sequence (P23219 24-599): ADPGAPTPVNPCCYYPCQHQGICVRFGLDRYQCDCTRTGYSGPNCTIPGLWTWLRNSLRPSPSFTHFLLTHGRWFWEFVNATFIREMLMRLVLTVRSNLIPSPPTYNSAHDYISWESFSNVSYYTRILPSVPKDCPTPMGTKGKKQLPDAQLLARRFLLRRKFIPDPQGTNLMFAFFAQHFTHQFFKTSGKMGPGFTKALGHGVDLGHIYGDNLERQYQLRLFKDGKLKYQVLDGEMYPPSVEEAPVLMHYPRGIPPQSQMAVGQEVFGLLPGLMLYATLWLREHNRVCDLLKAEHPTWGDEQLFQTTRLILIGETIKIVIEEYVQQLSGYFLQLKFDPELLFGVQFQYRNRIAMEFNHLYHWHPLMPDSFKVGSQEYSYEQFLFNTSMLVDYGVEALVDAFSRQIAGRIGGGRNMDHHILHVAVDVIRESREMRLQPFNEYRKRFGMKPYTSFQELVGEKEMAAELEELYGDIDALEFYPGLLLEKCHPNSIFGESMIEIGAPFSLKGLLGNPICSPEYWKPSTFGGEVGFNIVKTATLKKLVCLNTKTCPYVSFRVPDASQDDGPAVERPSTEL

IC50 (COX-1 [1]) [µM] | IC50 (COX-1 [2]) [µM] | Compound
> 10 | 13 | CS(=O)(=O)c1ccc(-c2ccoc(=O)c2-c2ccccc2)cc1 [Example 1, 4-(4-Methylsulfonyl)phenyl-3-phenyl-pyran-2-one]
0.3 to 1 | 2 | Cc1cc(-c2ccc(S(C)(=O)=O)cc2)c(-c2ccc(F)cc2)c(=O)o1 [Example 2, 3-(4-Fluorophenyl)-6-methyl-4-(4-methylsulfonyl)phenyl-pyran-2-one]
3 to 10 | 6.9 | Cc1cc(-c2ccc(S(C)(=O)=O)cc2)c(-c2cccc(F)c2)c(=O)o1 [Example 3, 3-(3-Fluorophenyl)-6-methyl-4-(4-methylsulfonyl)phenyl-pyran-2-one]
1 | 6.3 | Cc1cc(-c2ccc(S(C)(=O)=O)cc2)c(-c2ccccc2)c(=O)o1 [Example 4, 6-Methyl-4-(4-methylsulfonyl)phenyl-3-phenyl-pyran-2-one]
0.3 to 1 | – | CS(=O)(=O)c1ccc(-c2cc(C(F)F)oc(=O)c2-c2ccccc2)cc1 [Example 5, 6-Difluoromethyl-4-(4-methylsulfonyl)phenyl-3-phenyl-pyran-2-one]
~1 | – | CS(=O)(=O)c1ccc(-c2cc(CF)oc(=O)c2-c2ccccc2)cc1 [Example 6, 6-Fluoromethyl-4-(4-methylsulfonyl)phenyl-3-phenyl-pyran-2-one]
1 to 3 | 16 | Cc1cc(-c2ccc(S(C)(=O)=O)cc2)c(Sc2ccccc2)c(=O)o1 [Example 7, 6-Methyl-4-(4-(methylsulfonyl)phenyl)-3-phenylthio-pyran-2-one]
1 to 3 | 13 | Cc1cc(-c2ccc(S(C)(=O)=O)cc2)c(Oc2ccccc2)c(=O)o1 [Example 8, 6-Methyl-4-(4-(methylsulfonyl)phenyl)-3-phenoxy-pyran-2-one]
0.3 to 1 | 16 | Cc1cc(-c2ccc(S(C)(=O)=O)cc2)c(-c2cccnc2)c(=O)o1 [Example 9]
> 10 | – | Cc1cc(-c2ccc(S(C)(=O)=O)cc2)c(SC(C)C)c(=O)o1 [Example 10, 3-Isopropylthio-6-methyl-4-(4-(methylsulfonyl)phenyl)-pyran-2-one]
14 | – | CS(=O)(=O)c1ccc(-c2cc(C(F)(F)F)oc(=O)c2Sc2ccccc2)cc1 [Example 11, 4-(4-(Methylsulfonyl)phenyl)-3-phenylthio-6-trifluoromethyl-pyran-2-one]
>33 | – | CC(C)Sc1c(-c2ccc(S(C)(=O)=O)cc2)cc(C(F)(F)F)oc1=O [Example 12, 3-Isopropylthio-4-(4-(methylsulfonyl)phenyl)-6-trifluoromethyl-pyran-2-one]
> 10 | – | Cc1cc(-c2ccc(S(C)(=O)=O)cc2)c(CCC(C)(C)O)c(=O)o1 [Example 14, 3-(3-Hydroxy-3-methylbutyl)-6-methyl-4-(4-methylsulfonyl)phenyl-pyran-2-one]
